What was measured:
[1] = system: HGISC-derived primary epithelial cell line A2J1; experiment: Cellular toxicity of SN-38, MTT viability assay, A2J1; assay type: cell-based, human; conditions: A2J1 cells; increasing amounts of SN-38
Procedure: (§1) Briefly, HGISC-derived primary epithelial cell lines (A2J1 and SOJ2) and the malignant colonic adenocarcinoma cell line (HT29) were cultured, as described above in Examples 1A and 1B in medium containing different cytotoxic levels of the irinotecan metabolite 7-ethyl-10-hydroxy-20(S)-camptothecin (SN-38). […] Each cell culture was assessed for viability utilizing the MIT assay.
(§2) Yellow MTT (3-(4,5-Dimethylthiazol-2-yl)-2,5-diphenyltetrazolium bromide, a tetrazole) is reduced to purple formazan in living cells. A solubilization solution (usually either dimethyl sulfoxide, an acidified ethanol solution, or a solution of the detergent sodium dodecyl sulfate in diluted hydrochloric acid) is added to dissolve the insoluble purple formazan product into a colored solution. The absorbance of this colored solution may be quantified by measuring at a certain wavelength (usually between 500 and 600 nm) using a spectrophotometer. The absorption maximum is dependent on the solvent employed. The MTT assay may be used to determine cytotoxicity of materials, since those materials that result in cell toxicity, and therefore metabolic dysfunction, yield decreased performance in the assay.

[2] = system: malignant colonic adenocarcinoma cell line (HT29); experiment: Cellular toxicity of SN-38, MTT viability assay, HT29; assay type: cell-based, human; conditions: HT29 cells; increasing amounts of SN-38
Procedure: as §1, §2

[3] = system: HGISC-derived primary epithelial cell line SOJ2; experiment: Cellular toxicity of SN-38, MTT viability assay, SOJ2; assay type: cell-based, human; conditions: SOJ2 cells; increasing amounts of SN-38
Procedure: as §1, §2

[4] = system: HIPEC monolayer derived from small intestinal segment (A2J1)
[5] = cited from earlier work
[6] = system: IL-8 production by HIPEC cells; experiment: IL-8 production by HIPECs, ELISA; assay type: cell-based, human; conditions: for IL-8 production: 5-ASA 1-10 μg/ml in culture medium
Procedure: Human gastrointestinal epithelial stem cell-like progenitor cells were isolated from a normal segment of the large intestine and a segment of the large intestine in a diseased state (such as a segment having ulcerative colitis). Epithelial monolayers were grown from these progenitor crypt cells on the appropriate BSME as described above. The effects of 5-ASA on spontaneous, LPS, or IFN-γ stimulated IL-8 production were assessed on HIPEC cells cultured in the presence or absence of either LPS or IFN-γ and 5-ASA (1-10 μg/ml). The level of IL-8 production was measured by ELISA.

Molecule: CCc1c2c(nc3ccc(O)cc13)-c1cc3c(c(=O)n1C2)COC(=O)[C@]3(O)CC [SN-38, 7-ethyl-10-hydroxy-20(S)-camptothecin]
- percent viability (MTT) [1]: 0%
- percent viability (MTT) [2]: unaffected
- percent viability (MTT) [3]: above 50%

Molecule: CC(C)NCC(O)COc1cccc2ccccc12 (stereo not drawn) [propranolol]
- permeability through small intestine (A2J1) compared with large intestine (5A) [4]: greater than through large intestine (5A)
- absorption ([5]; administered in vivo): absorbed rapidly and completely
- bioavailability ([5]; due to extensive first-pass metabolism): variable bioavailability

Molecule: IFN-γ: cytokine produced predominantly by natural killer T cells as part of the innate immune response
- effect of stimulation on spontaneous IL-8 production ([6]; HIPECs from normal controls and from patients with IBS): moderately enhanced

Molecule: Nc1ccc(O)c(C(=O)O)c1 [5-ASA, 5-aminosalicyclic acid]
- IL-8 production ([6]; IBS HIPECs): suppressed
- IL-8 production ([6]; normal HIPECs): suppressed

From patent publication US20160084824A1, “DRUG DISCOVERY METHODS INVOLVING A PRECLNICAL, IN VITRO ISOLATED GASTROINTESTINAL EPITHELIAL STEM CELL-LIKE PROGENITOR CELL SYSTEM” (AlfaGene Bioscience, Inc., priority 2008, published 2016)
